Source: publication PMC7381740 (Theranostics, 2020)
Values joined by “and” are separate entries in the source; they are usually repeats but may differ in a detail not shown here. Equal entries are not always repeated.

Assays:
S1R [1] = biological target: T1, S1R (Rattus norvegicus, UniProt Q9R0C9); assay: Autoradiography in AMPA-injected rat brain sections; type: binding; conditions: striatum (caudate-putamen + globus pallidus), AMPA rats
Description: (§1) Animals were maintained normothermic (body temperature: 37.0 ± 0.4 °C) during the surgery through the use of a heating blanket (Homeothermic Blanket Control Unit, Harvard Apparatus Limited®, Edenbridge, Kent, UK). Twenty-four hours later, the rats were anesthetized again as described above and scanned with a 3T cryogen-free MRS 3000 scanner with a quadrature, rat head coil (MR Solutions, Guildford, UK), [35] to assess oedema (i.e. lesion size and location) immediately before the PET scan. Parameters for the T2-weighted RARE sequence were: repetition time = 4800 ms, base echo time = 17 ms, effective echo time = 68 ms, number of echoes = 8, bandwidth = 20 kHz, number of samples = 256, number of views = 240, number of averages = 1 with 25 slices of 1.06 mm, giving a final voxel size of 0.136 × 0.136 × 1.06 mm.
Sections of frontal (Brodmann areas 8/9) and temporal cortex (Brodmann areas 21/22) were cut from frozen human tissue blocks. […] Autoradiographs were analysed using AIDA software (Raytest GmbH, Germany). […] Specific binding (total binding minus non-specific binding) in each ROI is expressed as intensity of the photostimulated luminescence (PSL) per pixel.
Specific binding in the ipsi- and contralateral striatum in the rat AMPA model was analysed with a paired t-test.

S1R [2] = biological target: T1, S1R; assay: PET-CT brain uptake at baseline; conditions: for maximum brain uptake: PET time-activity curve; for average uptake (sum-image 20-60 min post-injection): baseline
Description: Sixty minutes PET scans were performed on 23 animals on a Siemens Inveon® PET/CT scanner (Injected dose: 38±11MBq). Eight of them were used for basal uptake. […] Animals scanned on multiple occasions (with/without blocking or different blocking agent) were always scanned at least 24 h apart. […] Animal respiration and temperature were controlled using a pressure-sensitive pad and rectal probe (BioVet, m2m Imaging Corp., Cleveland, OH, USA) and body temperature was maintained at 37 ± 0.7 °C via the interface managed by the BioVet system. […] Briefly, a CT scan was performed prior to the PET acquisition for attenuation correction. The list mode emission data were histogrammed into 3D sinograms of 35 dynamic frames, normalized, corrected for dead-time, attenuation, scatter and radioactive decay, and reconstructed using OSEM3D (16 subsets and 4 iterations) into images of dimensions 128 × 128 × 159 voxels of volume 0.776 × 0.776 × 0.796 mm^3.
PET-CT images were co-registered with the rat MRI template and its associated intracranial mask as published by Schwarz et al. [41] and generously provided by GSK. To co-register the MRI template and PET-CT images, individual brain masks were delineated on each CT image and co-registered with the MRI brain mask using rigid registration with mutual information. Image analysis and quantification was performed using the BrainVisa/Anatomist software (http://www.brainvisa.info) using the geometric transfer matrix (GTM) and ROIopt methods for partial volume correction both described and used previously [42]-[46]. […] PET data were expressed as SUV.

σ1 receptor (S1R) = conditions: cited from earlier work
S1R [3] = biological target: T1, S1R; assay: In vitro autoradiography, naive rat brain sections; type: binding; conditions: 2 nM tracer
Description: Sections of frontal (Brodmann areas 8/9) and temporal cortex (Brodmann areas 21/22) were cut from frozen human tissue blocks. Human and rodents sections were mounted on to glass slides (SuperFrost Plus Gold and SuperFrost Plus slides, Thermo Fisher Scientific Inc., MA, USA for human and animal tissues, respectively). For all steps described below, Tris buffer (Trizma pre-set crystals (Sigma, UK), 50 mM, with 120 mM NaCl, with pH adjusted to 7.4 at 4 °C or room temperature) was used. Slides were allowed to defrost then pre-incubated in Tris Buffer at 4 °C for 5min. […] Adjacent sections were incubated with the same solution containing an excess of unlabelled IAM6067 (2 µM) to assess non-specific binding. Next the slides were washed 2 × 2 min in Tris buffer at 4 °C, followed by a quick rinsing in distilled water at 4 °C. Slides were then dried promptly before exposition on Phosphor-Imager plates overnight. Autoradiographs were analysed using AIDA software (Raytest GmbH, Germany). […] Specific binding (total binding minus non-specific binding) in each ROI is expressed as intensity of the photostimulated luminescence (PSL) per pixel.

S1R [4] = biological target: T1, S1R; assay: PET in AMPA excitotoxic lesion model; type: in vivo
Description: as §1
PET data were expressed as SUV.
As the experiments with CM398 were performed later, scans without and with pre-treatment with CM398 were performed in the same animals and therefore were analysed using 2 way ANOVA with repeated measures for ROI and treatment. ANOVA were followed by a Sidak's post-hoc test.

[5] = Metabolite analysis in plasma and brain (radio-HPLC after i.v. injection); type: in vivo, rat
Description: Blood samples were collected at 1, 2, 5 min post-injection and at 10, 20, 40 or 60 min post-injection when the animals were sacrificed. Seven animals used for metabolites analysis were also scanned for 60 min. Plasma was isolated by centrifugation (3 min, 3000 × g at 4 °C). Two hundred µL of CH3CN was added to 200 µL of serum for protein precipitation and after centrifugation (3 min, 3000 × g at 4 °C), 100 µL of supernatant was injected into the HPLC for quantification (HPLC equipment: Shimadzu prominence with a UV detector and bespoke Scintillation detector; column: ACE 3 C18 HL, [Hichrom], 150 × 4.6 mm; porosity: 3 μm; solvent A: 0.1 M ammonium acetate; solvent B: CH3CN, isocratic elution: 50:50 (A/B) in 15 min; flow rate: 1 mL/min; room temperature; absorbance detection at λ = 254 nm). Animal brains were removed and then homogenised by ultra-Turrax® in 2 mL of ice-cold acetonitrile. After centrifugation (3 min, 9000 × g at 4 °C), the supernatant was separated from the pellet. One hundred microliters of brain supernatant were injected on the HPLC column (same conditions as above). Control samples were spiked with 15 µL of stable standard. The parent radiotracer eluted at 11 minutes.

T1 sequence (Q9R0C9 whole entry): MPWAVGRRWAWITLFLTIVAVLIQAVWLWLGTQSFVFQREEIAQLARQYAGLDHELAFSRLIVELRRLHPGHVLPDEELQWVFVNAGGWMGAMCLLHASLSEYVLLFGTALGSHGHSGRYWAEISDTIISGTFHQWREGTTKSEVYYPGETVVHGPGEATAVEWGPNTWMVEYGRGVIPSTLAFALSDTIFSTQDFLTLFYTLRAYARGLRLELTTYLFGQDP

With `FCCOc1ccc(CN2CCN(Cc3cc4ccccc4o3)CC2)cc1` [^18F-IAM6067, N-(2-Benzofuranylmethyl)-N'-[4-(2-fluoroethoxy)benzyl]piperazine] the “change in ^18F-IAM6067 specific binding, ipsi- vs contralateral” value (S1R [1]) was -38 ± 8% and -38%, the maximum brain uptake (S1R [2]; amygdala) was 3.3 SUV and the “average uptake (sum-image 20-60 min post-injection)” value (from here on “average uptake”) (S1R [2]; caudate/putamen) was 2.3 ± 0.1 SUV. For the same compound, the “average uptake” value (S1R [2]; cingulate cortex) was 2.3 ± 0.2 SUV, the “average uptake” value (S1R [2]; mesencephalic region) was 4.7 ± 0.3 SUV and the “average uptake” value (S1R [2]; pons-raphe) was 6.4 ± 0.8 SUV. For the same compound, the “average uptake” value (S1R [2]; substantia nigra) was 3.8 ± 0.7 SUV, the “average uptake” value (S1R [2]; temporal cortex) was 2.5 ± 0.2 SUV and the “average uptake” value (S1R [2]; thalamus medio-dorsal) was 3.9 ± 0.4 SUV. For the same compound, the “time of maximum brain uptake” value (S1R [2]; post-injection, amygdala and thalamus medio-dorsal) was 2.25 min, the maximum brain uptake (S1R [2]; thalamus medio-dorsal) was 5.5 SUV and the Ki (σ1 receptor (S1R)) was 2.6 nM. It also gave a specific binding (S1R [3]; cingulate cortex) of 4.96 ± 0.26 PSL/pixel, a specific binding (S1R [3]; hypothalamus) of 6.79 ± 0.95 PSL/pixel and a specific binding (S1R [3]; pons) of 7.24 ± 0.89 PSL/pixel. The specific binding (S1R [3]; somatosensory cortex) was 4.49 ± 0.51 PSL/pixel, the specific binding (S1R [3]; striatum) was 4.56 ± 0.42 PSL/pixel and the “^18F-IAM6067 uptake, AMPA-lesioned vs control rats (in words)” value (S1R [4]; ipsi- and contralateral substantia nigra and pons-raphe) was “significant increase”. For the same compound, the “change in ^18F-IAM6067 uptake (PET)” value (S1R [4]; lesioned caudate-putamen, 24 h after intrastriatal AMPA 7.5 nmol) was -16% and -16 ± 11%, the “Percentage of ^18F-IAM6067 and metabolites” value (“Percentage” for short) ([5]; rat brain, 10 min post-injection) was 91.3±3.7% and the “Percentage” value ([5]; rat brain, 20 min post-injection) was 94.1±2.8%. For the same compound, the “Percentage” value ([5]; rat brain, 60 min post-injection) was 91.3±6.0%, the “Percentage” value ([5]; rat plasma, 1 min post-injection) was 88.8±12.1% and the “Percentage” value ([5]; rat plasma, 2 min post-injection) was 58.3±4.1%. For the same compound, the “Percentage” value ([5]; rat plasma, 5 min post-injection) was 22.4±11.6%, the “Percentage” value ([5]; rat plasma, 10 min post-injection) was ~10% and the “Percentage” value ([5]; rat plasma, 10 min post-injection, listed as Parent) was 10.1±8.6%. The “Percentage” value ([5]; rat plasma, 20 min post-injection) was ~10%, the “Percentage” value ([5]; rat plasma, 20 min post-injection, listed as Parent) was 9.8±4.2% and the “Percentage” value ([5]; rat plasma, 60 min post-injection) was “not detectable”. For the same compound, the “Percentage” value ([5]; rat plasma, 60 min post-injection, listed as Parent) was 0.0%.
